Results on one compound are retold here after patent publication US20250345383A1, “INTRANASAL ADMINISTRATION OF POLYSULFIDE” (The General Hospital Corporation, priority 2022, published 2025).

The subject of one series is mice subjected to SCI. Kind of series: Mouse model of spinal cord ischemia (SCI): delayed paraplegia, hindlimb motor function by Basso mouse scale (BMS). It is filed as in vivo.
A short description of series [1]: LC-MS/MS of ^34S-labeled GSSSG and sulfane sulfur species in CNS and plasma after intranasal GS^34SSG. The settings on record: after intranasal administration. It is filed as in vivo, mouse. As for the experimental part: We used LC-MS/MS analysis to measure the amount of ^34S-labeled GSSSG ([^32S2, ^34S]GSSSG) in the CNS and plasma after intranasal administration of GS^34SSG, an isotope of endogenous GSSSG^9,35,36. The ratios of ^34S-labeled sulfane sulfur species ([^32S, ^34S]GSSH, [^32S, ^34S]cysteine hydropersulfide (CysSSH), and [^32S2, ^34S]cysteine trisulfide (CysSSSCys)) to endogenous sulfane sulfur species ([^32S2]GSSH, [^32S2]CysSSH, and […]) were also quantitatively evaluated. At 30 minutes after intranasal administration of 50 mg/kg of GS^34SSG, blood was obtained and four different central nervous tissues were harvested: olfactory bulb and forebrain; brainstem; cervical and thoracic spinal cord, and lumbar spinal cord. A total of 30 mg of each tissue was homogenized in 300 μl of ice-cold methanol solution containing 5 mM β-(4-hydroxyphenyl)ethyl iodoacetamide (HPE-IAM; Santa Cruz Biotechnology, Dallas, TX, USA). Twenty-five μl of plasma was mixed with 75 μl of ice-cold methanol solution containing 5 mM HPE-IAM. Samples were incubated for 20 minutes at 37° C. in the dark. After centrifugation (14,000×g for tissues, 1,870×g for plasma, 10 minutes, 4° C.), the supernatant was separated and diluted with 0.1% formic acid for LC-MS/MS analysis, and the pellet was sonicated to measure the protein concentration by BCA assay. The amount of [^32S2, ^34S]GSSSG was quantified in selective reaction monitoring (SRM) with precursor ion (647.14 m/z), product ion (389.1 m/z), and higher energy collisional dissociation (21 v). The ratios of [^32S, ^34S]GSSH to [^32S2]GSSH, [^32S, ^34S]CysSSH to [^32S2]CysSSH, and [^32S2, ^34S]CysSSSCys to [^32S3]CysSSSCys were calculated from their peak area measured by Dionex UltiMate 3000 RS UPLC-Orbitrap Exploris 480 mass spectrometer (Thermo Fisher Scientific, Waltham, MA, USA). In brief, samples were subjected to the UPLC system with a Hypersil Gold C-18 (100×2.1 mm, 3.0 μm, Thermo Fisher Scientific, Waltham, MA, USA) column and were then eluted by a linear methanol gradient of the mobile phase (0-90%, 15 minutes) in the presence of 0.1% formic acid at a flow rate of 0.2 ml/minute at 40° C. The raw data were analyzed by Compound Discoverer 3.3 software (Thermo Fisher Scientific, Waltham, MA, USA). The molecular weights of these sulfane sulfur species combined with HPE-IAM were determined based on previous reports^9,11,37.

The test system of the next series is primary cortical neurons. Kind of series: Relative sulfane sulfur levels in primary cortical neurons (SSip-1 DA). The settings on record: incubation at 10 μM for 20 minutes; relative to untreated neurons. It is filed as cell-based, mouse. As for the experimental part: Primary cortical neurons were isolated from the cerebral cortices of C57BL/6J mice of both sexes at embryonic day 15, as previously described 39. Primary cortical neurons were maintained at 37° C. in a humidified tissue culture chamber with 5% CO2 and cells were used on day 11 after harvest.
Primary cortical neurons or SH-SY5Y cells, a human neuroblastoma cell line (American Type Culture Collection, Manassas, VA, USA), were incubated with SSip-1 DA […] at 37° C. for 20 minutes in the dark. Cells were washed with pre-warmed HBSS containing calcium and magnesium (Thermo Fisher Scientific, Waltham, MA, USA) and then cells were incubated with GSSSG, sodium trisulfide (Na2S3; Dojindo Molecular Technologies, Inc., Rockville, MD, USA), PTN-SSS, or vehicle alone for 20 minutes at 37° C. in the dark. Fluorescence intensities were measured using a microplate reader.

Another series deals with SH-SY5Y cells. Kind of series: Cell viability of SH-SY5Y cells incubated with MPP+ (crystal violet assay). It counts as cell-based, human. The settings on record: MPP+ 5 mM, 24 h; 10 μM each. As for the experimental part: (§1) Cell viability assays was performed to examine cell viabilities of SH-SY5Y cells or murine primary cortical neurons 24 h after the addition of MPP^+ (5 mM for SH-SY5Y, 50 μM for primary cortical neurons) with vehicle (PBS), Na2S (Sigma-Aldrich), Na2S3 (Dojindo Molecular Technologies, Inc), GSSSG (Glutathione trisulfide, Kyowa Hakko Bio Co., Ltd., Tokyo, Japan), LA (α-Lipoic acid, Sigma-Aldrich) or LASSS (α-Lipoic acid trisulfide, Kyowa Hakko Bio Co., Ltd., Tokyo, Japan). Cell viability was measured using the crystal violet assay.

Series [2] concerns murine primary cortical neurons. Kind of series: Cell viability of murine primary cortical neurons incubated with MPP+ (crystal violet assay). It counts as cell-based, mouse. The settings on record: MPP+ 50 μM, 24 hours. As for the experimental part: as §1
A further series relates to MPTP-treated mice. The series can be described thus: MPTP-induced Parkinson's disease model in mice (tyrosine hydroxylase immunoblot). It is filed as in vivo, mouse. The settings on record: GSSSG 50 mg/kg intranasal on day 0 and every 12 hours days 1-6; harvested 7 days after MPTP. As to the method: Intermittent H2S Inhalation—Sulfide Pre-Conditioning (SPC) We previously reported that breathing H2S at 80 ppm markedly increases plasma and brain levels of H2S and thiosulfate, an oxidative product of H2S.^50,51 Male C57BL6/J mice breathed air alone and air mixed with 80 ppm H2S (Airgas Inc., Radnor, PA) for 4 h each day for 5 consecutive days in custom-made plastic chambers. The H2S breathing session was performed from 8 AM until 12 PM from Day 1 through Day 5 as previously described^51 (FIG. 1). H2S concentration, as well as FiO2, was continuously measured using a portable gas monitor (VENTIS MX4 Multi-Gas Monitor, Industrial Scientific Corporation, Oakdale. PA).
Male C57BL6/J and CD-1 mice received four intraperitoneal injections of MPTP (20 mg/kg) or saline every 2 h for a total of four doses of MPTP (total, 80 mg/kg) or equivalent amount of saline, as previously described 3. […] Then, tyrosine hydroxylase protein levels were detected by immunoblotting.
To determine the effects of polysulfide on the loss of tyrosine hydroxylase in the substantia nigra and striatum in mice treated with MPTP, we administered GSSSG (50 mg/kg) or saline via intranasal route immediately after the first and the third injection of MPTP on Day 0. […] Then, tyrosine hydroxylase protein levels were detected by immunoblotting.

Source text for mice subjected to SCI: Adult C57BL/6J mice (12-18 weeks old) of both sexes were purchased from Jackson Laboratory (Bar Harbor, ME, USA). Both male and female mice were used in experiments to investigate the neuroprotective effect of GSSSG on motor function after SCI. […] All mice were housed in a temperature and humidity-controlled room in the animal center with a 12-hour light/dark cycle, and were provided with food and water ab libitum. To permit access by mice that were recovering from surgery, additional food pellets were inserted into hydrated gel placed on the bedding. A randomized paired design was used to minimize the variability between each treatment group. Mice were paired based on weight, age, delivery dates, and when possible, holding cages. After the pairing, mice were randomly assigned to different treatments.
The surgical procedures to produce delayed paraplegia in mice were performed as previously described^6 (FIG. 2A). Mice were anesthetized with 5% isoflurane in 100% O2 and tracheally intubated with a 20-gauge catheter (Angiocath; Becton Dickinson, Franklin Lakes, NJ, USA). […] The paravertebral muscle temperature was measured using a T-type implantable thermocouple probe (IT-18) and a T-type pod (ADInstruments, Colorado Springs, CO, USA). […] A median sternotomy extended from the apex of the manubrium to the second rib. The aortic arch was gently isolated between the left common carotid artery (LCCA) and the left subclavian artery (LSA), avoiding the vagus nerve and the left recurrent laryngeal nerve. […] After ischemia, the clips were removed in reverse order. Incisions were closed in layers and mechanical ventilation was discontinued. After stable spontaneous respiration was confirmed, mice were extubated.
The previously described surgical procedures^6 were modified as follows. The respiratory rate during the procedure was increased to 230 breaths/minute, because hyperventilation promotes the occurrence of delayed paraplegia caused by spinal cord ischemia^33. A laser Doppler perfusion monitor (moorVMS-LDF1; Moor Instruments, Millwey, UK) was used to monitor the femoral artery blood flow^28,29. […] To improve the accuracy of surgical procedures, a microscope (Leica MZ95; Leica Microsystems, Buffalo Grove, IL, USA) was used to isolate the aortic arch and place the clips.
Study drugs were administered intranasally using a single-channel pipettor. Mice were anesthetized with 3% isoflurane using a non-rebreathing circuit with a mouse nose cone (VetEquip, Inc., Livermore, CA, USA). While the drugs were administered, the nose cone was removed and mice were allowed to breathe air. Approximately 6 μL of each drug was administered into the mouse's nostrils and the mouse inhaled the droplets during inspiration. […]

For `N[C@@H](CCC(=O)N[C@@H](CSSSC[C@H](NC(=O)CC[C@H](N)C(=O)O)C(=O)NCC(=O)O)C(=O)NCC(=O)O)C(=O)O` [GSSSG, glutathione trisulfide], the “male mice rescued from delayed paraplegia” value in the series with mice subjected to SCI (GSSSG vs GSSG comparison, n=6 per group, intranasal GSSSG 50 mg/kg, GSSG 53 mg/kg) was 83%. The “mice in which development of delayed paraplegia was prevented” value in the series with mice subjected to SCI (male mice, n=11 per group, intranasal at 0, 8, 23, 32 hours after surgery, GSSSG 50 mg/kg, GSH 45.2 mg/kg) is reported as 73%. Besides, in series [1], the “increase of levels of multiple sulfane sulfur species in the lumbar spinal cord” value lay in the range of 10 to 100 fold. Further, the “levels of intracellular sulfane sulfur in primary cortical neurons” value in the series on primary cortical neurons is listed as “increased levels of intracellular sulfane sulfur”. The “viability of MPP+-treated SH-SY5Y cells” value with SH-SY5Y cells is listed as “increased the viability”. The “protection of murine primary cortical neurons from the effects of MPP+ treatment” value in series [2] is on record as “protected”. Besides, the “tyrosine hydroxylase in the nigrostriatal region” value with MPTP-treated mice is “prevented the MPTP-induced decrease in tyrosine hydroxylase”.
